Active and inactive are the calls of the source. For most assays here, no stated cut-off is given here; in the data, actives have a measured Kd and inactives only a lower limit.
Each compound was assayed against Ribosomal protein S6 kinase alpha-6 (Homo sapiens, UniProt Q9UK32).
Chain of Ribosomal protein S6 kinase alpha-6 (Q9UK32 whole entry): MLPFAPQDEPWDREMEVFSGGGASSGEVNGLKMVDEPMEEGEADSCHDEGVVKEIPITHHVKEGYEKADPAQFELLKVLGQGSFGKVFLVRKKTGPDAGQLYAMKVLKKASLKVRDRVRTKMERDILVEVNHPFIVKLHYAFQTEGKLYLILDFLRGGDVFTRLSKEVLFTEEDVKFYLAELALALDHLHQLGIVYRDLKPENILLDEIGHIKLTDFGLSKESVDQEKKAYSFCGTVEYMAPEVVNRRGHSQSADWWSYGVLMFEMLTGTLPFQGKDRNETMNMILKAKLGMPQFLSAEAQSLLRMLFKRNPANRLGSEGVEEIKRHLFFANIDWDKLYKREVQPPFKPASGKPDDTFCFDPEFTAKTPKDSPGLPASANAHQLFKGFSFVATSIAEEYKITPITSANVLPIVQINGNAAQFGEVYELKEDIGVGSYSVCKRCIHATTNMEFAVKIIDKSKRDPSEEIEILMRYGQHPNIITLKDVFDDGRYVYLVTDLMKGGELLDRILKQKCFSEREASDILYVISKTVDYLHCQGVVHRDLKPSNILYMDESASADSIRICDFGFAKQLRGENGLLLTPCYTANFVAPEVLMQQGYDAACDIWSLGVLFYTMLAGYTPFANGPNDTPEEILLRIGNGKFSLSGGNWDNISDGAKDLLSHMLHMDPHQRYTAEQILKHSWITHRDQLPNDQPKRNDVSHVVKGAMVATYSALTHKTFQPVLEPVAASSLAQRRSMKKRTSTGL
In the case of `N[C@@H]1CCCN(c2c(/C=C3\SC(=O)NC3=O)cccc2-c2ccccc2)C1`, the Kd is reported as > 30 µM (inactive).
In the case of `Cc1ccc(S(=O)(=O)Nc2nc3ccccc3nc2Nc2ccc3nsnc3c2)cc1`, the Kd is reported as > 30 µM (inactive).
With `CN1CC[C@@H](c2c(O)cc(O)c3c(=O)cc(-c4ccccc4Cl)oc23)[C@@H]1CO` the Kd was > 30 µM (inactive).

Each compound was assayed against Casein kinase I isoform gamma-1 (Homo sapiens, UniProt Q9HCP0).
Chain of Casein kinase I isoform gamma-1 (Q9HCP0 whole entry, canonical isoform): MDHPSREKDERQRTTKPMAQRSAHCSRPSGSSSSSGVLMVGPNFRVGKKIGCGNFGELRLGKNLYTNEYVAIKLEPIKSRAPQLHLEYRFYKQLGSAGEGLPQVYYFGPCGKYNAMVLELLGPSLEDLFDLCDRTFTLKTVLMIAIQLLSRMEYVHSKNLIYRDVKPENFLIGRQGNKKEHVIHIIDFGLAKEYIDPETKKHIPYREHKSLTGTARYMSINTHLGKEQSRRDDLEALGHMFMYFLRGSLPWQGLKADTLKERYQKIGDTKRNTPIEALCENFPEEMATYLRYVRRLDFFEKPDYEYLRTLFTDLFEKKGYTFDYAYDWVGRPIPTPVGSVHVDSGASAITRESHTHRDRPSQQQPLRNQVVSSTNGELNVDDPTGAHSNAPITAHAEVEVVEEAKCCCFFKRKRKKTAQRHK
In the case of `N[C@@H]1CCCN(c2c(/C=C3\SC(=O)NC3=O)cccc2-c2ccccc2)C1`, the Kd is reported as > 30 µM (inactive).
`Cc1ccc(S(=O)(=O)Nc2nc3ccccc3nc2Nc2ccc3nsnc3c2)cc1` was tested, and the Kd was > 30 µM (inactive).
For `CN1CC[C@@H](c2c(O)cc(O)c3c(=O)cc(-c4ccccc4Cl)oc23)[C@@H]1CO`, the Kd was > 30 µM (inactive).

What follows are compounds tested against T1, dCTP pyrophosphatase 1 (Homo sapiens, UniProt Q9H773).
T1 sequence (Q9H773 whole entry): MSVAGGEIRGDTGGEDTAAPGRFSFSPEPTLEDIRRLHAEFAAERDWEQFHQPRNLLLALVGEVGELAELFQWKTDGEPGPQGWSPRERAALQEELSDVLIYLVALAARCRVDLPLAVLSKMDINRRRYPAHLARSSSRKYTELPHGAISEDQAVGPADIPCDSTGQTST
In the case of `N[C@@H]1CCCN(c2c(/C=C3\SC(=O)NC3=O)cccc2-c2ccccc2)C1`, the Kd is reported as > 30 µM (inactive).
In the case of `Cc1ccc(S(=O)(=O)Nc2nc3ccccc3nc2Nc2ccc3nsnc3c2)cc1`, the Kd is reported as > 30 µM (inactive).
For `CN1CC[C@@H](c2c(O)cc(O)c3c(=O)cc(-c4ccccc4Cl)oc23)[C@@H]1CO`, the Kd was > 30 µM (inactive).

Each compound was assayed against Casein kinase I isoform alpha (Homo sapiens, UniProt P48729).
Chain of Casein kinase I isoform alpha (P48729 whole entry, canonical isoform): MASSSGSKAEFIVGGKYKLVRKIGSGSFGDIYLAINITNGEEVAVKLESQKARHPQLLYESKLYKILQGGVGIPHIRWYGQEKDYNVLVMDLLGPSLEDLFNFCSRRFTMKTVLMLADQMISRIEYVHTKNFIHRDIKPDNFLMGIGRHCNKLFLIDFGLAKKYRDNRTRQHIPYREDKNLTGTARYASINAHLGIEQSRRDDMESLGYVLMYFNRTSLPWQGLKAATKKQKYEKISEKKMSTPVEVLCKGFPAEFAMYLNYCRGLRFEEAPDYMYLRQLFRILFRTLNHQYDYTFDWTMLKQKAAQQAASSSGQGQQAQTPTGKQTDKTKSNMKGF
For `N[C@@H]1CCCN(c2c(/C=C3\SC(=O)NC3=O)cccc2-c2ccccc2)C1`, the Kd was > 30 µM (inactive).
For `Cc1ccc(S(=O)(=O)Nc2nc3ccccc3nc2Nc2ccc3nsnc3c2)cc1`, the Kd was > 30 µM (inactive).
`CN1CC[C@@H](c2c(O)cc(O)c3c(=O)cc(-c4ccccc4Cl)oc23)[C@@H]1CO` was tested, and the Kd was > 30 µM (inactive).

These compounds were tested against Calcium/calmodulin-dependent protein kinase type II subunit delta (Homo sapiens, UniProt Q13557).
Chain of Calcium/calmodulin-dependent protein kinase type II subunit delta (Q13557 whole entry): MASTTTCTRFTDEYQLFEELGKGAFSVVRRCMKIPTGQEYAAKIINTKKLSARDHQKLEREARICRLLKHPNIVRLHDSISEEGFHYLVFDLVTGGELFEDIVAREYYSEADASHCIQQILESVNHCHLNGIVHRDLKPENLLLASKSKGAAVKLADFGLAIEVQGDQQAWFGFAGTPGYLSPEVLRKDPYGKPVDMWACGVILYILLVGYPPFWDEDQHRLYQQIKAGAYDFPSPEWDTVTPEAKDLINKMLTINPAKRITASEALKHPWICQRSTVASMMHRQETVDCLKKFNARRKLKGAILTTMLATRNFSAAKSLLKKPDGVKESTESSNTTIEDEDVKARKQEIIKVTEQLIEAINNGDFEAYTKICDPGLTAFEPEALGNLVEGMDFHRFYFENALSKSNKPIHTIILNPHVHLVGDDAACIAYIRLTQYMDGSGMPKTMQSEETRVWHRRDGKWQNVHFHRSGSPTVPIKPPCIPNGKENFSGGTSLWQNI
With `N[C@@H]1CCCN(c2c(/C=C3\SC(=O)NC3=O)cccc2-c2ccccc2)C1` the Kd was > 30 µM (inactive).
For `Cc1ccc(S(=O)(=O)Nc2nc3ccccc3nc2Nc2ccc3nsnc3c2)cc1`, the Kd was > 30 µM (inactive).
`CN1CC[C@@H](c2c(O)cc(O)c3c(=O)cc(-c4ccccc4Cl)oc23)[C@@H]1CO` was tested, and the Kd was > 30 µM (inactive).

These compounds were tested against Glycogen synthase kinase-3 alpha (Homo sapiens, UniProt P49840).
Chain of Glycogen synthase kinase-3 alpha (P49840 whole entry): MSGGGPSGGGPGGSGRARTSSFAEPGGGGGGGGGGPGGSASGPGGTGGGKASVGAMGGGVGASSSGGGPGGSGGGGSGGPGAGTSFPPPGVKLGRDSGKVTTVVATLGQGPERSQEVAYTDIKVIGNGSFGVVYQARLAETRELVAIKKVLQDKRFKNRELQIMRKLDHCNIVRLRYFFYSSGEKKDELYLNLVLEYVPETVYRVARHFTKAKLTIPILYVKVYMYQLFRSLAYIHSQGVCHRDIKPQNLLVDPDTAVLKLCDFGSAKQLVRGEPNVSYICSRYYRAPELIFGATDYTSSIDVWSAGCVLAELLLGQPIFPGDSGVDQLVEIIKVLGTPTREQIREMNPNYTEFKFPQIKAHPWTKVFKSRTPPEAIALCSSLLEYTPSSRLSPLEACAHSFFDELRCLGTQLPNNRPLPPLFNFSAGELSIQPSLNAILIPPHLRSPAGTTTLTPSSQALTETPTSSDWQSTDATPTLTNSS
In the case of `N[C@@H]1CCCN(c2c(/C=C3\SC(=O)NC3=O)cccc2-c2ccccc2)C1`, the Kd is reported as > 30 µM (inactive).
In the case of `Cc1ccc(S(=O)(=O)Nc2nc3ccccc3nc2Nc2ccc3nsnc3c2)cc1`, the Kd is reported as > 30 µM (inactive).
With `CN1CC[C@@H](c2c(O)cc(O)c3c(=O)cc(-c4ccccc4Cl)oc23)[C@@H]1CO` the Kd was > 30 µM (inactive).

These compounds were tested against T2, Discoidin domain-containing receptor 2 (Homo sapiens, UniProt Q16832).
T2 sequence (Q16832 whole entry): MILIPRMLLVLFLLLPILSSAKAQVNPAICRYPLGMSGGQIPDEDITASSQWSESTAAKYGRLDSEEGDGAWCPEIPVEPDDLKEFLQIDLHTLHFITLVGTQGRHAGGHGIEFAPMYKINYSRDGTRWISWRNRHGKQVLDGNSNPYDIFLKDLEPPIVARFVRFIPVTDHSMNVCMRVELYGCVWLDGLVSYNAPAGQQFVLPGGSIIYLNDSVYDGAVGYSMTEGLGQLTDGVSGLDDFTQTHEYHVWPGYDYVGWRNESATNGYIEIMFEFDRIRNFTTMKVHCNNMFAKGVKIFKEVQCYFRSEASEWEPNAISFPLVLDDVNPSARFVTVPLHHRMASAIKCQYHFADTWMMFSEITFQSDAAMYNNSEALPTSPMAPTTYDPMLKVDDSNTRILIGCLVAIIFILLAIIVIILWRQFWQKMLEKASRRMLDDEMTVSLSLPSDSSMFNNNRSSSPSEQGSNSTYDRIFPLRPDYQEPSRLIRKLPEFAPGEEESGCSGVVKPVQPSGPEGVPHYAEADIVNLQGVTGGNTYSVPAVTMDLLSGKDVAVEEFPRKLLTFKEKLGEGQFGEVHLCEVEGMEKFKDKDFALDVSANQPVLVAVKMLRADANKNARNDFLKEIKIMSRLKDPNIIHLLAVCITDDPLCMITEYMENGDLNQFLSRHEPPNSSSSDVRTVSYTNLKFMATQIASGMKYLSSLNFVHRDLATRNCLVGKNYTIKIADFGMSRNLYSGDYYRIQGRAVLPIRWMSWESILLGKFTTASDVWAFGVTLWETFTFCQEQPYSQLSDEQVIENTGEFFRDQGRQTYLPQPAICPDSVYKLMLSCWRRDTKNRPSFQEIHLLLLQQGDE
In the case of `N[C@@H]1CCCN(c2c(/C=C3\SC(=O)NC3=O)cccc2-c2ccccc2)C1`, the Kd is reported as > 30 µM (inactive).
For `Cc1ccc(S(=O)(=O)Nc2nc3ccccc3nc2Nc2ccc3nsnc3c2)cc1`, the Kd was > 30 µM (inactive).
For `CN1CC[C@@H](c2c(O)cc(O)c3c(=O)cc(-c4ccccc4Cl)oc23)[C@@H]1CO`, the Kd was > 30 µM (inactive).

The compounds below were run against T3, Serine/threonine-protein kinase TAO3 (Homo sapiens, UniProt Q9H2K8).
T3 sequence (Q9H2K8 whole entry): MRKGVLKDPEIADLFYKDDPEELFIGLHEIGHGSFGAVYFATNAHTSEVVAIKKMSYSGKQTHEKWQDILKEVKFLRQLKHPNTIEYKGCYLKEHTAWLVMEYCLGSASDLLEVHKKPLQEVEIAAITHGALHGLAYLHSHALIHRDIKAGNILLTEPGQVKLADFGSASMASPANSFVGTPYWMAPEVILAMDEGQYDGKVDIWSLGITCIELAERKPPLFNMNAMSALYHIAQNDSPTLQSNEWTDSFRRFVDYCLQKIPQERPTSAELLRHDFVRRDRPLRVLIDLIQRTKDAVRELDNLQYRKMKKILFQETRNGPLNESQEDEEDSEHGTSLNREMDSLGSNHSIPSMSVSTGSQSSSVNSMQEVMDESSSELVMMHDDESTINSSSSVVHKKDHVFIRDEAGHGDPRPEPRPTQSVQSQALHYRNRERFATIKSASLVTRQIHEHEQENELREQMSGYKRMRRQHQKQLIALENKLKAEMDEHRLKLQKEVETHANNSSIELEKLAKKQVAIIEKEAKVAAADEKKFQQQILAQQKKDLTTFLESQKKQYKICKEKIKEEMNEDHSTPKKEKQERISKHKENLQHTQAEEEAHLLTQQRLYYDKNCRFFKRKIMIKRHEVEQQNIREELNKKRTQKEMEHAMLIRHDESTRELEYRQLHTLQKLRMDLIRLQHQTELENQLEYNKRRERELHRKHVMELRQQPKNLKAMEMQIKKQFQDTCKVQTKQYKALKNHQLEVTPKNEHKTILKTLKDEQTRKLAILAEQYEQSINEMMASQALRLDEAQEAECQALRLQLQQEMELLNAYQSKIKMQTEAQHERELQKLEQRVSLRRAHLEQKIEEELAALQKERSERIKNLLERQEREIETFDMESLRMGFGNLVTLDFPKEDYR
In the case of `N[C@@H]1CCCN(c2c(/C=C3\SC(=O)NC3=O)cccc2-c2ccccc2)C1`, the Kd is reported as > 30 µM (inactive).
With `Cc1ccc(S(=O)(=O)Nc2nc3ccccc3nc2Nc2ccc3nsnc3c2)cc1` the Kd was > 30 µM (inactive).
`CN1CC[C@@H](c2c(O)cc(O)c3c(=O)cc(-c4ccccc4Cl)oc23)[C@@H]1CO` was tested, and the Kd was > 30 µM (inactive).

These compounds were tested against T4, Cysteine--tRNA ligase, cytoplasmic (Homo sapiens, UniProt P49589).
T4 sequence (P49589 whole entry): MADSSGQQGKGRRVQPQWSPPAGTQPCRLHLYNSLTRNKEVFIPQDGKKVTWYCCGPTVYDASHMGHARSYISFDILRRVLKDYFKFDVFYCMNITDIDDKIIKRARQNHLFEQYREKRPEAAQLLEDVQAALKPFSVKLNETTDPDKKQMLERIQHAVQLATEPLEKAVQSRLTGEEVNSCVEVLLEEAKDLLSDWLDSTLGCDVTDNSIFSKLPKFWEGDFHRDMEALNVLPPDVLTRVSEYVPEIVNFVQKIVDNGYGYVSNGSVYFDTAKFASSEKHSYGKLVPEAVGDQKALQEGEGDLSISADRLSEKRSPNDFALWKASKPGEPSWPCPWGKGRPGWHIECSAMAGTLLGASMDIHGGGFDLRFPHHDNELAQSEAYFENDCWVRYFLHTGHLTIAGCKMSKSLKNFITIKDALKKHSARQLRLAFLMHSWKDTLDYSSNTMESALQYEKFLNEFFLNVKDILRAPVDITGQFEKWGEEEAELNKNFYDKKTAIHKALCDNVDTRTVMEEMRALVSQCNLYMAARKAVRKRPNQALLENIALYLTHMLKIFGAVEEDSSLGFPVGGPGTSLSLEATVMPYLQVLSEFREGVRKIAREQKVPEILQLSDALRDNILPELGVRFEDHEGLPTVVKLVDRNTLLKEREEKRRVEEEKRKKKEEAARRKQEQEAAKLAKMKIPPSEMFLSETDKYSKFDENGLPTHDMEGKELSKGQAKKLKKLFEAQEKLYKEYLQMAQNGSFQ
`N[C@@H]1CCCN(c2c(/C=C3\SC(=O)NC3=O)cccc2-c2ccccc2)C1` was tested, and the Kd was > 30 µM (inactive).
With `Cc1ccc(S(=O)(=O)Nc2nc3ccccc3nc2Nc2ccc3nsnc3c2)cc1` the Kd was > 30 µM (inactive).
For `CN1CC[C@@H](c2c(O)cc(O)c3c(=O)cc(-c4ccccc4Cl)oc23)[C@@H]1CO`, the Kd was > 30 µM (inactive).

From ChEMBL document CHEMBL3991601, “The target landscape of clinical kinase drugs” (Science, 2017)
